ChEMBL document CHEMBL1145536, “Low-oxygen-recovery assay for high-throughput screening of compounds against nonreplicating Mycobacterium tuberculosis” (2007)
Converted amounts (≈) assume the structure as drawn.

Key:
Type in all cases: functional
[1] = tested on: Mycobacterium tuberculosis; test: Antimicrobial activity against non replicating persistence Mycobacterium tuberculosis H37Rv in aerobic condition assessed by relative light units after 7 days; details: 168 h
[2] = tested on: Mycobacterium tuberculosis; test: Antimicrobial activity against non replicating persistence Mycobacterium tuberculosis H37Rv in aerobic condition assessed as bacterial density after 7 days; details: 168 h
[3] = tested on: Mycobacterium tuberculosis; test: Antimicrobial activity against non replicating persistence Mycobacterium tuberculosis H37Rv in anaerobic condition assessed as relative light unit after 11 days by LORA assay; details: 264 h
[4] = tested on: Mycobacterium tuberculosis; test: Antimicrobial activity against non replicating persistence Mycobacterium tuberculosis H37Rv in anaerobic condition assessed as bacterial density after 10 days; details: 240 h

Row | SMILES | MIC [1] [µM] | MIC [2] [µM] | MIC [3] [µM] | MIC [4] [µM]
1 | CCC[C@@H]1C[C@@H](C(=O)N[C@@H]([C@H]2O[C@H](SC)[C@H](O)[C@@H](O)[C@H]2O)[C@@H](C)O)N(C)C1 [LINCOMYCIN] | > 128 | 104 (≈ 42.1 µg/mL) | > 128 | > 128
2 | CC(=O)NC[C@H]1CN(c2ccc(N3CCOCC3)c(F)c2)C(=O)O1 [LINEZOLID] | 6.3 (≈ 2.13 µg/mL) | 1.9 (≈ 0.641 µg/mL) | 65.2 (≈ 22 µg/mL) | > 128
3 | Cc1ncc([N+](=O)[O-])n1CCO [METRONIDAZOLE] | > 128 | > 128 | > 128 | 40 (≈ 6.85 µg/mL)
4 | CN(C)c1ccc(O)c2c1C[C@H]1C[C@H]3[C@H](N(C)C)C(O)=C(C(N)=O)C(=O)[C@@]3(O)C(O)=C1C2=O [MINOCYCLINE] | 7.1 (≈ 3.25 µg/mL) | 7.2 (≈ 3.29 µg/mL) | 53.5 (≈ 24.5 µg/mL) | 38.4 (≈ 17.6 µg/mL)
5 | COc1c(N2C[C@@H]3CCCN[C@@H]3C2)c(F)cc2c(=O)c(C(=O)O)cn(C3CC3)c12 [MOXIFLOXACIN] | 0.5 (≈ 0.201 µg/mL) | ≤ 0.5 | 15.9 (≈ 6.38 µg/mL) | ≤ 0.5
6 | O=C(Nc1ccc([N+](=O)[O-])cc1Cl)c1cc(Cl)ccc1O [NICLOSAMIDE] | ≤ 0.5 | ≤ 0.5 | ≤ 0.5 | 0.9 (≈ 0.294 µg/mL)
7 | O=C1CN(/N=C/c2ccc([N+](=O)[O-])o2)C(=O)N1 [NITROFURANTOIN] | > 128 | 0.9 (≈ 0.214 µg/mL) | 63.9 (≈ 15.2 µg/mL) | 32 (≈ 7.62 µg/mL)
8 | CC1COc2c(N3CCN(C)CC3)c(F)cc3c(=O)c(C(=O)O)cn1c23 (stereo not given) [OFLOXACIN] | 2.3 (≈ 0.831 µg/mL) | 0.7 (≈ 0.253 µg/mL) | > 128 | 24.2 (≈ 8.75 µg/mL)
9 | O=[N+]([O-])c1cn2c(n1)OC[C@@H](OCc1ccc(OC(F)(F)F)cc1)C2 [PRETOMANID] | 0.6 (≈ 0.216 µg/mL) | 0.7 (≈ 0.251 µg/mL) | 3.1 (≈ 1.11 µg/mL) | 12 (≈ 4.31 µg/mL)
10 | NC(=O)c1cnccn1 [PYRAZINAMIDE] | > 128 | > 128 | > 128 | 96 (≈ 11.8 µg/mL)
11 | CO[C@H]1/C=C/O[C@@]2(C)Oc3c(C)c(O)c4c(c3C2=O)C2=NC3(CCN(CC(C)C)CC3)NC2=C(NC(=O)/C(C)=C\C=C\[C@H](C)[C@H](O)[C@@H](C)[C@@H](O)[C@@H](C)[C@H](OC(C)=O)[C@@H]1C)C4=O [RIFABUTIN] | 0.5 (≈ 0.424 µg/mL) | ≤ 0.5 | ≤ 0.5 | ≤ 0.5
12 | CO[C@H]1/C=C/O[C@@]2(C)Oc3c(C)c(O)c4c(O)c(c(/C=N/N5CCN(C)CC5)c(O)c4c3C2=O)NC(=O)/C(C)=C\C=C\[C@H](C)[C@H](O)[C@@H](C)[C@@H](O)[C@@H](C)[C@H](OC(C)=O)[C@@H]1C [RIFAMPIN] | 0.5 (≈ 0.411 µg/mL) | ≤ 0.5 | 1.8 (≈ 1.48 µg/mL) | ≤ 0.5
13 | C[C@]1(Cn2ccnn2)[C@H](C(=O)O)N2C(=O)C[C@H]2S1(=O)=O [TAZOBACTAM] | > 128 | > 128 | > 128 | > 128
14 | COc1cc(Cc2cnc(N)nc2N)cc(OC)c1OC [TRIMETHOPRIM] | > 128 | > 128 | > 128 | 83.2 (≈ 24.2 µg/mL)
15 | CN[C@H](CC(C)C)C(=O)N[C@H]1C(=O)N[C@@H](CC(N)=O)C(=O)N[C@H]2C(=O)N[C@H]3C(=O)N[C@H](C(=O)N[C@H](C(=O)O)c4cc(O)cc(O)c4-c4cc3ccc4O)[C@H](O)c3ccc(c(Cl)c3)Oc3cc2cc(c3O[C@@H]2O[C@H](CO)[C@@H](O)[C@H](O)[C@H]2O[C@H]2C[C@](C)(N)[C@H](O)[C@H](C)O2)Oc2ccc(cc2Cl)[C@H]1O [VANCOMYCIN] | > 128 | 15.5 (≈ 22.5 µg/mL) | > 128 | 128 (≈ 186 µg/mL)
